In US9944598B2, “Mono- or di-substituted indole derivatives as dengue viral replication inhibitors” (priority 2014, dated 2018):

Key:
[1] = in vitro; assay type: cell-based; details: African green monkey, CC50
Protocol: In parallel, the toxicity of the compounds was assessed on the same plates. Once the read-out for the eGFP signal was done, 10 μL of resazurin, a cell viability stain, was added to all wells of the 384-well plates. The resazurin assay is based on the reduction of the blue resazurin by NADH, produced by the cells, into the highly fluorescent product, resorufin. The formation of pink fluorescent resorufin is directly related to the number of viable cells in the well. The plates were incubated for an additional 5 hours in a fully humidified incubator (37° C., 5% CO2). Next, the plates were measured on an Infinite reader (Tecan) using an excitation wavelength of 530 nm. The half maximal cytotoxic concentration (CC50) was also determined, defined as the concentration required to reduce the resazurin conversion by 50% compared to that of the cell control wells (Table 1). Finally, the selectivity index (SI) is determined for the compounds, which is calculated as followed: SI=CC50/EC50.

[2] = system: DENV-2 NGC-Tongalike; assay: Tetravalent RT-qPCR assay Protocol B, serotype 2; assay type: cell-based; details: Dengue virus, DENV2, Vero, 96 h
Protocol: (§1) Vero cells (4×10^4) were seeded in 96-well plates. After one day, cell culture medium was replaced with 100 μL assay medium containing a 2×, 3× or 5× serial dilution of the compound (concentration range: 50 μg/mL-0.00038 μg/mL, 50 μg/mL-0.0076 μg/mL, and 50 μg/mL-0.00013 μg/mL, respectively) and 100 μL of dengue virus dilution, where a Ct of ˜20 is achieved in RTqPCR. Following a 2 hour incubation period, the cell monolayer was washed 3 times with assay medium to remove residual, non-adsorbed virus and cultures were further incubated for either 4 days (DENV-2 NGC-Tongalike) or 7 days (DENV-1 Djibouti strain D1/H/IMTSSA/98/606, DENV-3 strain H87 prototype, DENV-4 strain H241) in the presence of the inhibitor. Supernatant was harvested and viral RNA load was determined by real-time quantitative RT-PCR. The 50% effective concentration (EC50), which is defined as the compound concentration that is required to inhibit viral RNA replication by 50%, was determined using logarithmic interpolation (Tables 7 and 8).
(§2) RNA was isolated from 100 μL supernatant with the NucleoSpin 96 Virus kit (Filter Service, Düren, Germany) as described by the manufacturer. The sequences of the TaqMan primers (DENV-For, DENV-Rev; Table 5) and TaqMan probes (DENV-Probe Table 5) were selected from non-structural gene 3 (NS3) or NSS, of the respective flaviviruses using Primer Express software (version 2.0; Applied Biosystems, Lennik, Belgium). The TaqMan probe was fluorescently labelled with 6-carboxyfluorescein (FAM) at the 5′ end as the reporter dye, and with minor groove binder (MGB) at the 3′ end as the quencher (Table 5). One-step, quantitative RT-PCR was performed in a total volume of 25 μL, containing 13.9375 μL H2O, 6.25 μL master mix (Eurogentec, Seraing, Belgium), 0.375 μL forward primer, 0.375 μL reverse primer, 1 μL probe, 0.0625 μL reverse transcriptase (Eurogentec) and 3 μL sample. RT-PCR was performed using the ABI 7500 Fast Real-Time PCR System (Applied Biosystems, Branchburg, N.J., USA) using the following conditions: 30 min at 48° C. and 10 min at 95° C., followed by 40 cycles of 15 s at 95° C. and 1 min at 60° C. The data was analyzed using the ABI PRISM 7500 SDS software (version 1.3.1; Applied Biosystems). For absolute quantification, standard curves were generated using 10-fold dilutions of template preparations of known concentrations.

[3] = system: DENV-1 Djibouti strain D1/H/IMTSSA/98/606; assay: Tetravalent RT-qPCR assay Protocol B, serotype 1; assay type: cell-based; details: Dengue virus, DENV1, 168 h, RT-qPCR serotype 1 Djibouti, Vero cells, 7 days
Protocol: as §1, §2

[4] = system: DENV-2 16681 strain labeled with eGFP; assay: DENV-2 antiviral assay (eGFP fluorescence, Vero cells); assay type: cell-based, Dengue virus; details: DENV-2 16681 eGFP, MOI 0.5, 3 days
Protocol: The antiviral activity of all the compounds of the invention was tested against DENV-2 16681 strain which was labeled with enhanced green fluorescent protein (eGPF). The culture medium consists of minimal essential medium supplemented with 2% of heat-inactivated fetal calf serum, 0.04% gentamycin (50 mg/mL) and 2 mM of L-glutamine. Vero cells, obtained from ECACC, were suspended in culture medium and 25 μL was added to 384-well plates (2500 cells/well), which already contain the antiviral compounds. Typically, these plates contain a 4-fold serial dilution of 9 dilution steps of the test compound at 200 times the final concentration in 100% DMSO (200 nL). In addition, each compound concentration is tested in quadruplicate (final concentration range: 25 μM-0.00038 μM). Finally, each plate contains wells which are assigned as virus controls (containing cells and virus in the absence of compound), cell controls (containing cells in the absence of virus and compound) and medium controls (containing medium in the absence of cells, virus and compounds). To the wells assigned as medium control, 25 μL of culture medium was added instead of Vero cells. Once the cells were added to the plates, the plates were incubated for 30 minutes at room temperature to allow the cells to distribute evenly within the wells. Next, the plates were incubated in a fully humidified incubator (37° C., 5% CO2) until the next day. Then, DENV-2 strain 16681, labeled with eGFP, was added at a multiplicity of infection (MOI) of 0.5. Therefore, 15 μL of virus suspension was added to all the wells containing test compound and to the wells assigned as virus control. In parallel, 15 μL of culture medium was added to the medium and cell controls. Next, the plates were incubated for 3 days in a fully humidified incubator (37° C., 5% CO2). At the day of the read out, the eGFP fluorescence was measured using an automated fluorescence microscope at 488 nm (blue laser). Using an in-house LIMS system, inhibition dose response curves for each compound were calculated and the half maximal effective concentration (EC50) was determined. Therefore, the percent inhibition (I) for every test concentration is calculated using the following formula: I=100*(ST−SCC)/(SVC−SCC); ST, SCC and SVC are the amount of eGFP signal in the test compound, cell control and virus control wells, respectively. The EC50 represents the concentration of a compound at which the virus replication is inhibited with 50%, as measured by a 50% reduction of the eGFP fluorescent intensity compared to the virus control. The EC50 is calculated using linear interpolation (Table 1).

Row | Structure (SMILES) | CC50 [1] | EC50 [2] | EC50 [3] | EC50 [4]
1 | COc1cc(NC(C(=O)c2c[nH]c3cc(F)ccc23)c2ccc(Cl)cc2OC)cc(OCCO)c1 (single isomer, unassigned) [Compound 1A, 2-(4-chloro-2-methoxyphenyl)-1-(6-fluoro-1H-indol-3-yl)-2-((3-(2-hydroxyethoxy)-5-methoxyphenyl)amino)ethanone] | 4300 nM | 0.38 nM | 22 nM | 0.81 nM
2 | COc1cc(NC(C(=O)c2c[nH]c3c(C)c(F)ccc23)c2ccc(Cl)cc2OC)cc(OCCO)c1 (single isomer, unassigned) [Compound 2A, 2-(4-chloro-2-methoxyphenyl)-1-(6-fluoro-7-methyl-1H-indol-3-yl)-2-((3-(2-hydroxyethoxy)-5-methoxyphenyl)amino)ethanone] | 4200 nM | 0.4 nM | 17 nM | 0.81 nM
3 | COc1cc(NC(C(=O)c2c[nH]c3c(C)c(Cl)ccc23)c2ccc(Cl)cc2OC)cc(OCCO)c1 (single isomer, unassigned) [Compound 3A, 2-(4-chloro-2-methoxyphenyl)-1-(6-chloro-7-methyl-1H-indol-3-yl)-2-((3-(2-hydroxyethoxy)-5-methoxyphenyl)amino)ethanone] | 4500 nM | < 0.33 nM | 18 nM | 0.34 nM
4 | COc1cc(NC(C(=O)c2c[nH]c3cc(Cl)ccc23)c2ccc(Cl)cc2OC)cc(OCCO)c1 (single isomer, unassigned) [Compound 4A, 1-(6-chloro-1H-indol-3-yl)-2-(4-chloro-2-methoxyphenyl)-2-((3-(2-hydroxyethoxy)-5-methoxyphenyl)amino)ethanone] | 4900 nM | < 0.34 nM | 20 nM | 0.7 nM
5 | COc1cc(NC(C(=O)c2c[nH]c3cc(OC)ccc23)c2ccc(Cl)cc2OC)cc(OCCO)c1 (single isomer, unassigned) [Compound 5A, 2-(4-chloro-2-methoxyphenyl)-2-((3-(2-hydroxyethoxy)-5-methoxyphenyl)amino)-1-(6-methoxy-1H-indol-3-yl)ethanone] | 5900 nM | < 0.4 nM | 19 nM | 0.84 nM
6 | COc1cc(NC(C(=O)c2c[nH]c3cc(OC)c(C)cc23)c2ccc(Cl)cc2OC)cc(OCCO)c1 (single isomer, unassigned) [Compound 6A, 2-(4-chloro-2-methoxyphenyl)-2-((3-(2-hydroxyethoxy)-5-methoxyphenyl)amino)-1-(6-methoxy-5-methyl-1H-indol-3-yl)ethanone] | 5100 nM | 0.4 nM | < 15 nM | 0.82 nM
7 | COc1cc(NC(C(=O)c2c[nH]c3cc(OC)c(F)cc23)c2ccc(Cl)cc2OC)cc(OCCO)c1 (single isomer, unassigned) [Compound 7A, 2-(4-chloro-2-methoxyphenyl)-1-(5-fluoro-6-methoxy-1H-indol-3-yl)-2-((3-(2-hydroxyethoxy)-5-methoxyphenyl)amino)ethanone] | 6100 nM | 0.27 nM | 20 nM | 1.1 nM
8 | COc1cc(NC(C(=O)c2c[nH]c3c(C)cc(F)cc23)c2ccc(Cl)cc2OC)cc(OCCO)c1 (single isomer, unassigned) [Compound 8A, 2-(4-chloro-2-methoxyphenyl)-1-(5-fluoro-7-methyl-1H-indol-3-yl)-2-((3-(2-hydroxyethoxy)-5-methoxyphenyl)amino)ethanone] | 4200 nM | 1.4 nM | 17 nM | 1.2 nM
9 | COc1cc(NC(C(=O)c2c[nH]c3cc(F)c(F)cc23)c2ccc(Cl)cc2OC)cc(OCCO)c1 (single isomer, unassigned) [Compound 9A, 2-(4-chloro-2-methoxyphenyl)-1-(5,6-difluoro-1H-indol-3-yl)-2-((3-(2-hydroxyethoxy)-5-methoxyphenyl)amino)ethanone] | 3900 nM | < 0.31 nM | 19 nM | 
10 | COc1cc(NC(C(=O)c2c[nH]c3c(F)cc(C)cc23)c2ccc(Cl)cc2OC)cc(OCCO)c1 (single isomer, unassigned) [Compound 10A, 2-(4-chloro-2-methoxyphenyl)-1-(7-fluoro-5-methyl-1H-indol-3-yl)-2-((3-(2-hydroxyethoxy)-5-methoxyphenyl)amino)ethanone] | 4500 nM | 1.4 nM | 20 nM | 3.2 nM
11 | COc1cc(NC(C(=O)c2c[nH]c3c(F)c(F)ccc23)c2ccc(Cl)cc2OC)cc(OCCO)c1 (single isomer, unassigned) [Compound 11B, 2-(4-chloro-2-methoxyphenyl)-1-(6,7-difluoro-1H-indol-3-yl)-2-((3-(2-hydroxyethoxy)-5-methoxyphenyl)amino)ethanone] |  | 0.27 nM | 25 nM | 1.2 nM
